Key:
[1] = test system: LAPC4 prostate cancer cells, which express the AKT1 E17K allele; experiment: Antiproliferative effects in LAPC4 cells (CellTiter Glo, 72 h); type: cell-based; conditions: Homo sapiens, LAPC4, 72 h, read-out: LAPC4 proliferation IC50: GeoMean IC50
How it was run: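 IC50 values come from Hill-equation fitting of luminescence (cellular ATP) after 72 h compound exposure. Treated wells held 1,000 cells each, with compound delivered as DMSO dilutions. Culture medium was IMDM plus 12% FBS.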

AKT1 WT = target: T1, AKT1 WT (Homo sapiens, UniProt P31749); experiment: Live cell target engagement by NanoBRET competitive probe displacement, AKT1 WT; type: binding; conditions: transfected HEK293 cells, 2 h at 37° C., read-out: AKT1 WT IC50: GeoMean IC50
T1 construct: expressed in transfected cells; host or cells: HEK293

AKT2 = target: T2, AKT2 (Homo sapiens, UniProt P31751); experiment: Live cell target engagement by NanoBRET competitive probe displacement, AKT2; type: binding; conditions: transfected HEK293 cells, 2 h at 37° C., read-out: AKT2 IC50: GeoMean IC50
T2 construct: expressed in transfected cells; host or cells: HEK293

AKT1 E17K = target: T3, AKT1 E17K (Homo sapiens, UniProt P31749, E17K); experiment: Live cell target engagement by NanoBRET competitive probe displacement, AKT1 E17K; type: binding; conditions: transfected HEK293 cells, 2 h at 37° C., read-out: AKT1 E17K IC50: GeoMean IC50
T3 construct: expressed in transfected cells; host or cells: HEK293
T3 sequence (P31749 whole entry E17K): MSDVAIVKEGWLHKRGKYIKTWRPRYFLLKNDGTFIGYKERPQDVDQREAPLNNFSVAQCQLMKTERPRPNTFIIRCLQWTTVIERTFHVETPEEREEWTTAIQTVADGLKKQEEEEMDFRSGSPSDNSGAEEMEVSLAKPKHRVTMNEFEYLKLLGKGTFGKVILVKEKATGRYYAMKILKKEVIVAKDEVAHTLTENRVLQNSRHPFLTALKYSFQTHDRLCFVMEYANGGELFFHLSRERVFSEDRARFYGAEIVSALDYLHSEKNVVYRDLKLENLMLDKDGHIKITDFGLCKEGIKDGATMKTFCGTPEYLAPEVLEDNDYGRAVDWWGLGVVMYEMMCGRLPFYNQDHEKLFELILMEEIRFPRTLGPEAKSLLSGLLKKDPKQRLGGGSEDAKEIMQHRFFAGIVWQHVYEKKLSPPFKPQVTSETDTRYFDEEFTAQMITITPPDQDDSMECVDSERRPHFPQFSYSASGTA

T2 sequence (P31751 whole entry): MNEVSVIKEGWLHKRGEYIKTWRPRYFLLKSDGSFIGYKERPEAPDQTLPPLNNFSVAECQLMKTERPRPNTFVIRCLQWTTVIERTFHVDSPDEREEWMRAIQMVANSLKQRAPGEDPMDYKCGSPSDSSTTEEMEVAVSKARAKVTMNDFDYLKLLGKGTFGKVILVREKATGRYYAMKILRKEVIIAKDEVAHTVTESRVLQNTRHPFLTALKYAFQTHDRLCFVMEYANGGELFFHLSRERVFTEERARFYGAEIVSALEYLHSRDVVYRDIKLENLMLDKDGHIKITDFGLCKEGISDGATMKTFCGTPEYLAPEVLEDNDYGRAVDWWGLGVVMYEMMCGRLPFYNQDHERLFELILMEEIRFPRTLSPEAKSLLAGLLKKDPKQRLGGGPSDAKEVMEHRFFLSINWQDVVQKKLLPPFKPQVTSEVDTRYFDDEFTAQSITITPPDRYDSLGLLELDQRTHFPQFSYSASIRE
T1 sequence (P31749 whole entry): as the sequence (P31749 whole entry E17K) above, with K17E counted along it

Row | SMILES | IC50 [1] | IC50 (AKT1 WT) | IC50 (AKT2) | IC50 (AKT1 E17K)
1 | Nc1ncccc1-c1nc2ccc(-n3cccn3)nc2n1-c1ccc2c(c1)CC[C@@H]2N1Cc2cc(O)c(C=O)cc2C1=O [Example 208, (S)-2-(5-(2-(2-aminopyridin-3-yl)-5-(1H-pyrazol-1-yl)-3H-imidazo[4,5-b]pyridin-3-yl)-2,3-dihydro-1H-inden-1-yl)-6-hydroxy-3-oxoisoindoline-5-carbaldehyde] | ≥ 2000 nM | ≥ 2000 nM | ≥ 2000 nM | ≥ 2000 nM
2 | Cc1ccc2nc(-c3cccnc3N)n(-c3ccc4c(c3)CC[C@@H]4NC(=O)c3cc(F)c(O)c(C=O)c3)c2n1 [Example 44, (S)—N-(5-(2-(2-aminopyridin-3-yl)-5-methyl-3H-imidazo[4,5-b]pyridin-3-yl)-2,3-dihydro-1H-inden-1-yl)-3-fluoro-5-formyl-4-hydroxybenzamide] | 100 to 2000 nM | 100 to 2000 nM | ≥ 2000 nM | 100 to 2000 nM
3 | N#Cc1cc(O)c(C=O)cc1C(=O)N[C@H]1CCc2cc(-n3c(-c4cccnc4N)nc4ccc(-n5cccn5)nc43)ccc21 [Example 250, (S)—N-(5-(2-(2-aminopyridin-3-yl)-5-(1H-pyrazol-1-yl)-3H-imidazo[4,5-b]pyridin-3-yl)-2,3-dihydro-1H-inden-1-yl)-2-cyano-5-formyl-4-hydroxybenzamide] | ≥ 2000 nM | ≥ 2000 nM | ≥ 2000 nM | ≥ 2000 nM
4 | C#Cc1ccc2nc(-c3cccnc3N)n(-c3ccc4c(c3)CC[C@@H]4NC(=O)c3ccc(O)c(C=O)c3)c2n1 [Example 50, N-[(1S)-5-[2-(2-aminopyridin-3-yl)-5-ethynylimidazo[4,5-b]pyridin-3-yl]-2,3-dihydro-1H-inden-1-yl]-3-formyl-4-hydroxybenzamide] | 100 to 2000 nM | 100 to 2000 nM | ≥ 2000 nM | 10 to 100 nM
5 | CN1CC(n2ccc(-c3ccc4nc(-c5cccnc5N)n(-c5ccc6c(c5)CC[C@@H]6NC(=O)c5ccc(O)c(C=O)c5)c4n3)n2)C1 [Example 165, (S)—N-(5-(2-(2-aminopyridin-3-yl)-5-(1-(1-methylazetidin-3-yl)-1H-pyrazol-3-yl)-3H-imidazo[4,5-b]pyridin-3-yl)-2,3-dihydro-1H-inden-1-yl)-3-formyl-4-hydroxybenzamide] | 100 to 2000 nM | 10 to 100 nM | 100 to 2000 nM | 10 to 100 nM
6 | Nc1ncccc1-c1nc2ccc(-c3ncc(F)s3)nc2n1-c1ccc2c(c1)CC[C@@H]2NC(=O)c1cc(C=O)c(O)c(F)c1F [Example 193, N-[(1S)-5-[2-(2-aminopyridin-3-yl)-5-(5-fluoro-1,3-thiazol-2-yl)imidazo[4,5-b]pyridin-3-yl]-2,3-dihydro-1H-inden-1-yl]-2,3-difluoro-5-formyl-4-hydroxybenzamide] | 10 to 100 nM | 10 to 100 nM | 10 to 100 nM | 10 to 100 nM
7 | Nc1ncccc1-c1nc2ccc(-c3ccccc3)nc2n1-c1ccc2c(c1)CC[C@@H]2NC(=O)c1cc(Cl)c(O)c(C=O)c1 [Example 11, N-[(1S)-5-[2-(2-aminopyridin-3-yl)-5-phenylimidazo[4,5-b]pyridin-3-yl]-2,3-dihydro-1H-inden-1-yl]-3-chloro-5-formyl-4-hydroxybenzamide] | 100 to 2000 nM | 10 to 100 nM | 100 to 2000 nM | 10 to 100 nM
8 | Cc1cnc(-c2ccc3nc(-c4cccnc4N)n(-c4ccc5c(c4)CC[C@@H]5NC(=O)c4cc(C=O)c(O)cc4F)c3n2)s1 [Example 185, N-[(1S)-5-[2-(2-aminopyridin-3-yl)-5-(5-methyl-1,3-thiazol-2-yl)imidazo[4,5-b]pyridin-3-yl]-2,3-dihydro-1H-inden-1-yl]-2-fluoro-5-formyl-4-hydroxybenzamide] | 10 to 100 nM | 10 to 100 nM | 100 to 2000 nM | 10 to 100 nM
9 | Nc1ncccc1-c1nc2ccc(OC3CC3)nc2n1-c1ccc2c(c1)CC[C@@H]2NC(=O)c1ccc(O)c(C=O)c1 [Example 32, N-[(1S)-5-[2-(2-aminopyridin-3-yl)-5-cyclopropoxyimidazo[4,5-b]pyridin-3-yl]-2,3-dihydro-1H-inden-1-yl]-3-formyl-4-hydroxybenzamide] | 100 to 2000 nM | 100 to 2000 nM | ≥ 2000 nM | 10 to 100 nM
10 | CN1CCN(c2cccc(-c3ccc4nc(-c5cccnc5N)n(-c5ccc6c(c5)CC[C@@H]6NC(=O)c5ccc(O)c(C=O)c5)c4n3)c2)CC1 [Example 19, (S)—N-(5-(2-(2-aminopyridin-3-yl)-5-(3-(4-methylpiperazin-1-yl)phenyl)-3H-imidazo[4,5-b]pyridin-3-yl)-2,3-dihydro-1H-inden-1-yl)-3-formyl-4-hydroxybenzamide] | 10 to 100 nM | < 10 nM | < 10 nM | < 10 nM
11 | Nc1ncccc1-c1nc2ccc(-n3cccn3)nc2n1-c1ccc2c(c1)CC[C@@H]2NC(=O)c1cc(C=O)c(O)cc1O [Example 159, (S)—N-(5-(2-(2-aminopyridin-3-yl)-5-(1H-pyrazol-1-yl)-3H-imidazo[4,5-b]pyridin-3-yl)-2,3-dihydro-1H-inden-1-yl)-5-formyl-2,4-dihydroxybenzamide] | 100 to 2000 nM | 10 to 100 nM | 100 to 2000 nM | 10 to 100 nM
12 | Nc1ncccc1-c1nc2ccc(-n3cccn3)nc2n1-c1ccc2c(c1)C(=O)C[C@@H]2NC(=O)c1ccc(O)c(C=O)c1 [Example 85, N-[(1S)-5-[2-(2-aminopyridin-3-yl)-5-(pyrazol-1-yl)imidazo[4,5-b]pyridin-3-yl]-3-oxo-1,2-dihydroinden-1-yl]-3-formyl-4-hydroxybenzamide] | ≥ 2000 nM | 100 to 2000 nM | 100 to 2000 nM | 100 to 2000 nM
13 | Cc1cc(-c2nccs2)nc2c1nc(-c1cccnc1N)n2-c1ccc2c(c1)CC[C@@H]2NC(=O)c1ccc(O)c(C=O)c1 [Example 180, N-[(1S)-5-[2-(2-aminopyridin-3-yl)-7-methyl-5-(1,3-thiazol-2-yl)imidazo[4,5-b]pyridin-3-yl]-2,3-dihydro-1H-inden-1-yl]-3-formyl-4-hydroxybenzamide] | 10 to 100 nM | 10 to 100 nM | 10 to 100 nM | 10 to 100 nM
14 | Nc1ncccc1-c1nc2ccc(-n3cccn3)nc2n1-c1ccc2c(c1)CC[C@@H]2NC(=O)c1csc(C=O)n1 [Example 143, (S)—N-(5-(2-(2-aminopyridin-3-yl)-5-(1H-pyrazol-1-yl)-3H-imidazo[4,5-b]pyridin-3-yl)-2,3-dihydro-1H-inden-1-yl)-2-formylthiazole-4-carboxamide] | 100 to 2000 nM | 100 to 2000 nM | 100 to 2000 nM | 100 to 2000 nM

Now from value to compound:

Row | IC50 [1] | IC50 (AKT1 WT) | IC50 (AKT2) | IC50 (AKT1 E17K) | SMILES
15 | 10 to 100 nM | < 10 nM | 10 to 100 nM | < 10 nM | Cc1csc(-c2ccc3nc(-c4cccnc4N)n(-c4ccc5c(c4)CC[C@@H]5NC(=O)c4ccc(O)c(C=O)c4)c3n2)n1 [Example 133, (S)—N-(5-(2-(2-aminopyridin-3-yl)-5-(4-methylthiazol-2-yl)-3H-imidazo[4,5-b]pyridin-3-yl)-2,3-dihydro-1H-inden-1-yl)-3-formyl-4-hydroxybenzamide]
16 | 10 to 100 nM | 10 to 100 nM | 10 to 100 nM | < 10 nM | CS(=O)(=O)Nc1ccc(C(=O)N[C@H]2CCc3cc(-n4c(-c5cccnc5N)nc5ccc(-c6ccccc6)nc54)ccc32)cc1C=O [Example 51, N-[(1S)-5-[2-(2-aminopyridin-3-yl)-5-phenylimidazo[4,5-b]pyridin-3-yl]-2,3-dihydro-1H-inden-1-yl]-3-formyl-4-methanesulfonamidobenzamide]
17 | 10 to 100 nM | 10 to 100 nM | 100 to 2000 nM | 10 to 100 nM | COc1cnc(-c2ccc3nc(-c4cccnc4N)n(-c4ccc5c(c4)CC[C@@H]5NC(=O)c4ccc(O)c(C=O)c4)c3n2)cn1 [Example 71, (S)—N-(5-(2-(2-aminopyridin-3-yl)-5-(5-methoxypyrazin-2-yl)-3H-imidazo[4,5-b]pyridin-3-yl)-2,3-dihydro-1H-inden-1-yl)-3-formyl-4-hydroxybenzamide]
18 | 10 to 100 nM | 100 to 2000 nM | 100 to 2000 nM | 10 to 100 nM | Nc1ncccc1-c1nc2ccc(-n3cc(CO)cn3)nc2n1-c1ccc2c(c1)CC[C@@H]2NC(=O)c1cc(C=O)c(O)cc1F [Example 138, (S)—N-(5-(2-(2-aminopyridin-3-yl)-5-(4-(hydroxymethyl)-1H-pyrazol-1-yl)-3H-imidazo[4,5-b]pyridin-3-yl)-2,3-dihydro-1H-inden-1-yl)-2-fluoro-5-formyl-4-hydroxybenzamide]
19 | < 10 nM | < 10 nM | 10 to 100 nM | < 10 nM | CN(C)C(=O)Nc1ccc(C(=O)N[C@H]2CCc3cc(-n4c(-c5cccnc5N)nc5ccc(-c6ccccc6)nc54)ccc32)cc1C=O [Example 63, (S)—N-(5-(2-(2-aminopyridin-3-yl)-5-phenyl-3H-imidazo[4,5-b]pyridin-3-yl)-2,3-dihydro-1H-inden-1-yl)-4-(3,3-dimethylureido)-3-formylbenzamide]
20 | 10 to 100 nM | 10 to 100 nM | 100 to 2000 nM | 10 to 100 nM | COc1cc(-n2cccn2)nc2c1nc(-c1cccnc1N)n2-c1ccc2c(c1)CC[C@@H]2NC(=O)c1cc(C=O)c(O)cc1F [Example 221, N-[(1S)-5-[2-(2-aminopyridin-3-yl)-7-methoxy-5-(pyrazol-1-yl)imidazo[4,5-b]pyridin-3-yl]-2,3-dihydro-1H-inden-1-yl]-2-fluoro-5-formyl-4-hydroxybenzamide]

Source: patent publication US20260053834A1, “COVALENT MODIFIERS OF AKT1 AND USES THEREOF” (Terremoto Biosciences, Inc., priority 2023, published 2026)
